The source made the active and inactive calls. The rule behind the calls is not given here.

For orientation: inhibition in vivo means the percentage by which the read-out fell short of the control. The term logP denotes the decadic logarithm of the partition coefficient of the neutral form, usually between octanol and water. Lower therefore signals a more hydrophilic compound.

The subject of data set [1] is Plasmodium yoelii nigeriensis. Kind of data set: Antimalarial activity against blood stage multidrug-resistant Plasmodium yoelii nigeriensis infected swiss mouse assessed as suppression of parasitaemia at 24 mg/kg, po administered once daily for 3 days measured on day 4 by microscopic analysis relative to control. Type of data set: functional.
Data set [2] has as its system Plasmodium yoelii nigeriensis. As to the kind of experiment: Antimalarial activity against blood stage multidrug-resistant Plasmodium yoelii nigeriensis infected swiss mouse assessed as protection against […] infection at 6 mg/kg, po administered once daily for 3 days measured after 28 days by microscopy. Type of data set: functional, organism-based.
For data set [3], the system named is Plasmodium yoelii nigeriensis. Kind of data set: Antimalarial activity against blood stage multidrug-resistant Plasmodium yoelii nigeriensis infected swiss mouse assessed as suppression of parasitaemia at 12 mg/kg, po administered once daily for 3 days measured on day 4 by microscopic analysis relative to control. Type of data set: functional.
The subject of data set [4] is Plasmodium yoelii nigeriensis. Kind of data set: Antimalarial activity against blood stage multidrug-resistant Plasmodium yoelii nigeriensis infected swiss mouse assessed as protection against Plasmodium yoelii nigeriensis infection at 12 mg/kg, po administered once daily for 3 days measured on day 4 and subsequently twice a week up to 28 days by microscopy. Type of data set: functional.

Data set [5] relates to Plasmodium yoelii nigeriensis. Kind of data set: Antimalarial activity against blood stage multidrug-resistant Plasmodium yoelii nigeriensis infected swiss mouse assessed as protection against Plasmodium yoelii nigeriensis infection at 48 mg/kg, po administered once daily for 3 days measured on day 4 and subsequently twice a week up to 28 days by microscopy. Type of data set: functional.

Data set [6] concerns Plasmodium yoelii nigeriensis. Kind of data set: Antimalarial activity against blood stage multidrug-resistant Plasmodium yoelii nigeriensis infected swiss mouse assessed as suppression of parasitaemia at 48 mg/kg, po administered once daily for 3 days measured on day 4 by microscopic analysis relative to control. Type of data set: functional.
Data set [7] has as its system Plasmodium yoelii nigeriensis. As to the kind of experiment: Antimalarial activity against blood stage multidrug-resistant Plasmodium yoelii nigeriensis infected swiss mouse assessed as protection against […] infection at 6 mg/kg, po administered once daily for 3 days measured on day 4 and subsequently twice a week up to 28 days by microscopy. Type of data set: functional, organism-based.

The test system of data set [8] is Plasmodium yoelii nigeriensis. As to the kind of experiment: Antimalarial activity against blood stage multidrug-resistant Plasmodium yoelii nigeriensis infected swiss mouse assessed as suppression of parasitaemia at 6 mg/kg, po administered once daily for 3 days measured on day 4 by microscopic analysis relative to control. Type of data set: functional.
For data set [9], the system named is Plasmodium yoelii nigeriensis. Kind of data set: Antimalarial activity against blood stage multidrug-resistant Plasmodium yoelii nigeriensis infected swiss mouse assessed as protection […] at 24 mg/kg, po administered once daily for 3 days measured on day 4 and subsequently twice a week up to 28 days by microscopy. Type of data set: functional.
Data set [10] in a line: Lipophilicity, logP of compound. Type of data set: physicochemical. The note with it: octanol/water.
In data set [11] the test system is Plasmodium yoelii nigeriensis. As to the kind of experiment: Antimalarial activity against blood stage multidrug-resistant Plasmodium yoelii nigeriensis infected swiss mouse assessed as protection against Plasmodium yoelii nigeriensis infection at 12 mg/kg, po administered once daily for 3 days measured after 28 days by microscopy. Type of data set: functional, organism-based.

The subject of data set [12] is Plasmodium yoelii nigeriensis. Kind of data set: Antimalarial activity against blood stage multidrug-resistant Plasmodium yoelii nigeriensis infected swiss mouse assessed as protection […] at 24 mg/kg, po administered once daily for 3 days measured after 28 days by microscopy. Type of data set: functional, organism-based.

Turning to `C[C@H]1[C@H](OC(=O)C(c2ccccc2)c2ccccc2)O[C@@H]2O[C@@]3(C)CC[C@H]4[C@H](C)CC[C@@H]1[C@@]24OO3`, the inhibition in vivo at 24 mg/kg in data set [1] turned out to be 100%. For the same compound, the outcome in data set [2] and in data set [7] was inactive. In addition, the inhibition in vivo at 12 mg/kg in data set [3] was found to be 100%. Further, the Activity in [4], in data set [5] and in data set [9] was 100% in each case. The inhibition in vivo at 48 mg/kg in [6] was determined as 100%. Moreover, the inhibition in vivo at 6 mg/kg in data set [8] is 100%. In addition, the logP in data set [10] is 6.97.

Turning to `C[C@H]1[C@H](OC(=O)CC(c2ccc(F)cc2)c2ccc(F)cc2)O[C@@H]2O[C@@]3(C)CC[C@H]4[C@H](C)CC[C@@H]1[C@@]24OO3`, the inhibition in vivo at 24 mg/kg in data set [1] was 100%. Further, the result in [2] and in data set [7] was inactive. Moreover, in [3], the inhibition in vivo at 12 mg/kg came to 100%. Also, the Activity turned out to be 80% in [4], 100% in [5] and 100% in data set [9]. In addition, in data set [6], the inhibition in vivo at 48 mg/kg amounted to 100%. The inhibition in vivo at 6 mg/kg in [8] was 100%. The logP in [10] was 7.47.

For `C[C@H]1[C@H](OC(=O)CC(c2ccc(Cl)cc2)c2ccc(Cl)cc2)O[C@@H]2O[C@@]3(C)CC[C@H]4[C@H](C)CC[C@@H]1[C@@]24OO3`, the inhibition in vivo at 24 mg/kg in data set [1] was 100%. Moreover, the inhibition in vivo at 12 mg/kg in data set [3] worked out at 96%. In addition, the outcome in data set [4], in data set [11] and in data set [12] was inactive. Moreover, the Activity in data set [5] and in [9] was 100% throughout. In [6], the inhibition in vivo at 48 mg/kg was found to be 100%. Further, the logP in data set [10] was 8.27.

On to `CCCCCC(=O)O[C@@H]1O[C@@H]2O[C@@]3(C)CC[C@H]4[C@H](C)CC[C@@H]([C@H]1C)[C@@]24OO3`, for which the inhibition in vivo at 24 mg/kg in data set [1] is 100%. Besides, the Activity in data set [5] was found to be 100%. In data set [6], the inhibition in vivo at 48 mg/kg stood at 100%. In addition, the outcome in data set [9] was inactive. In data set [10], the logP stood at 5.28.

Turning to `CCCCCCC(=O)O[C@@H]1O[C@@H]2O[C@@]3(C)CC[C@H]4[C@H](C)CC[C@@H]([C@H]1C)[C@@]24OO3`, the inhibition in vivo at 24 mg/kg in data set [1] is 100%. Besides, the Activity in data set [5] is 100%. The inhibition in vivo at 48 mg/kg in [6] amounted to 100%. For the same compound, the logP in data set [10] is 5.7.

`CC(=O)O[C@@H]1O[C@@H]2O[C@@]3(C)CC[C@H]4[C@H](C)CC[C@@H]([C@H]1C)[C@@]24OO3`: in data set [1], the inhibition in vivo at 24 mg/kg was found to be 99%. For the same compound, the inhibition in vivo at 48 mg/kg in data set [6] was 100%. Besides, the result in data set [9] was inactive. The compound also displayed a logP in data set [10] of 3.37.

As to `C[C@H]1[C@H](OC(=O)CC(c2ccccc2)c2ccccc2)O[C@@H]2O[C@@]3(C)CC[C@H]4[C@H](C)CC[C@@H]1[C@@]24OO3`, the inhibition in vivo at 24 mg/kg in [1] was determined as 100%. In addition, in data set [3], the inhibition in vivo at 12 mg/kg came out at 100%. For the same compound, the result in data set [4], in [11] and in data set [12] was inactive. In addition, the Activity in data set [5] and in data set [9] was 100% each time. Moreover, in [6], the inhibition in vivo at 48 mg/kg was 100%. In data set [10], the logP turned out to be 7.15.

For the compound `C[C@H]1[C@H](OC(=O)CCc2ccccc2)O[C@@H]2O[C@@]3(C)CC[C@H]4[C@H](C)CC[C@@H]1[C@@]24OO3`, the inhibition in vivo at 24 mg/kg in data set [1] is 100%. The Activity in [5] was determined as 100%. In data set [6], the inhibition in vivo at 48 mg/kg came out at 100%. Further, the logP in [10] worked out at 5.63.

In the case of `C[C@H]1[C@H](OC(=O)CC(c2ccc(Br)cc2)c2ccc(Br)cc2)O[C@@H]2O[C@@]3(C)CC[C@H]4[C@H](C)CC[C@@H]1[C@@]24OO3`, the inhibition in vivo at 24 mg/kg in [1] came out at 100%. Besides, the inhibition in vivo at 12 mg/kg in data set [3] was determined as 100%. Also, the result in data set [4], in data set [11] and in data set [12] was inactive. Moreover, the Activity in data set [5] and in data set [9] was 100% in each case. Further, the inhibition in vivo at 48 mg/kg in data set [6] worked out at 100%. Further, the logP in data set [10] was 8.81.

As to `COc1ccc(C(CC(=O)O[C@@H]2O[C@@H]3O[C@@]4(C)CC[C@H]5[C@H](C)CC[C@@H]([C@H]2C)[C@@]35OO4)c2ccc(OC)cc2)cc1`, the inhibition in vivo at 24 mg/kg in data set [1] came to 100%. Also, the outcome in [2] and in data set [7] was inactive. Further, the inhibition in vivo at 12 mg/kg in data set [3] was found to be 100%. Besides, the figures for the Activity in data set [4], in data set [5] and in data set [9] were 80%, 100% and 100%, respectively. In data set [6], the inhibition in vivo at 48 mg/kg came out at 100%. Also, the inhibition in vivo at 6 mg/kg in [8] was found to be 100%. The compound also returned a logP in data set [10] of 6.9.

The values above are taken from ChEMBL document CHEMBL3774322, “New orally active diphenylmethyl-based ester analogues of dihydroartemisinin: Synthesis and antimalarial assessment against multidrug-resistant Plasmodium yoelii nigeriensis in mice” (Bioorg Med Chem Lett, 2016).
